The results in this text go back to US11578055B2, “Triazacyclododecansulfonamide (“TCD”)-based protein secretion inhibitors” (KEZAR LIFE SCIENCES, priority 2018, dated 2023).

One may read the EC50 as the concentration at which the effect is half-maximal.

Like-named read-outs stand apart in the source and are kept apart here.

Series [1] relates to PD1 signal sequence plus 10 amino acids fused to Gaussia Luciferase (PD1-ss+10aa/Gaussia Luciferase). The experiment in a line: Dox Induced PD1-ss-Gluc Assay. Format: cell-based. The settings on record: 24 hr, read-out: 24 hr Dox Inducible PD1ssGluc 293FRT/TO: Mean IC50. The method in brief:
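Compound dilutions in DMSO/media containing doxycycline were applied to a stable, inducible 293 T-REx line carrying the luciferase fusion, then incubated at 37 °C, 5% CO2. Where stereochemistry is not drawn, values relate to isomer mixtures.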

The subject of series [2] is full length TNFα (amino acids 1-233) fused to Gaussia Luciferase. The experiment in a line: Dox Induced TNFα-FL-Gluc Assay. The settings on record: 24 hr, read-out: 24 hr Dox Inducible TNFaFLGluc 293FRT/TO: Mean IC50. Format: cell-based. The method in brief:
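Compounds diluted in DMSO/medium with doxycycline were incubated at 37° C, 5% CO2 with 293 T-REx cells stably carrying a Tet-regulated TNFα(1-233)-Gaussia luciferase construct. Data for structures drawn without stereochemistry refer to stereoisomer mixtures.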

The subject of series [3] is multiple myeloma cell line NCl-H929. Put plainly: H929 Cell Viability Assay. Format: cell-based, human. The settings on record: Homo sapiens, NCI-H929, 48 h. The method in brief:
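Viability was determined by CellTiter-Glo luminescence after a 48 h, 37 °C exposure of NCI-H929 cells to serial compound dilutions in medium containing 10% FBS. Where stereochemistry is not shown, values refer to a mix of stereoisomers.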

Series [4] in a line: In Vitro Microsome Stability Assay (mouse). The format is in vitro ADME. The method in brief:
(§1)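 Species liver microsomes in potassium phosphate buffer were preincubated at 37 °C for 3–5 min with test compound (added from 0.25 mM DMSO stock), then started with NADPH. Samples at 0 and 30 min were quenched with acetonitrile containing internal standard and analysed by LC-MS/MS; % remaining at 30 min used analyte/IS AUC ratios relative to t=0.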

A short description of series [5]: In Vitro Microsome Stability Assay (monkey). The format is in vitro ADME. The method in brief:
as §1

Another series concerns GM-CSF. Put plainly: Human PBMC Cytokine Assay: GM-CSF. The format is cell-based. To be noted: anti-CD3/CD28 stimulation, 24 hours. How it is done: (§2) Human PBMC were freshly isolated from whole blood collections of 3 normal donors utilizing density gradient centrifugation followed by red blood cell lysis. PBMC from each donor were assayed separately. Cells were suspended in RPMI 1640 media supplemented with 5% fetal bovine serum, 2 mM L-glutamine, 10 mM HEPES, and 1× penicillin/streptomycin. PBMC were seeded at 200,000 cells/well in 96-well round-bottom plates either without stimulation or with stimulation by lipopolysaccharide (LPS, 1 μg/mL) or antibodies against human CD3 (plate-bound, 2 μg/mL) and human CD28 (soluble, 2 μg/mL). Serial dilutions of compound in DMSO/media were simultaneously added and PBMC were incubated at 37° C., 5% CO2 for 24 hours. After 24 hours, plates were centrifuged and half of the supernatant volume removed for cytokine analysis by electrochemiluminescent immunoassay (U-PLEX® Biomarker Multiplex, Meso Scale Discovery). For viability analysis, CellTiter-Glo® (Promega) was added to the remaining material in each well and quantified via luminescent plate reader.

The subject of the next series is IL-1β. The experiment in a line: Human PBMC Cytokine Assay: IL-1β. The format is cell-based. To be noted: LPS stimulation, 24 hours. How it is done: as §2
The subject of a further series is IL-6. Put plainly: Human PBMC Cytokine Assay: IL-6. Format: cell-based. To be noted: LPS stimulation, 24 hours. How it is done:
as §2

In a further series the test system is IL-23. The experiment in a line: Human PBMC Cytokine Assay: IL-23. The format is cell-based. To be noted: LPS stimulation, 24 hours. How it is done: as §2
The next series concerns TNFα. Put plainly: Human PBMC Cytokine Assay: TNFα. To be noted: anti-CD3/CD28 stimulation, 24 hours. Format: cell-based. How it is done: as §2
The next series deals with Human PBMC. Put plainly: Human PBMC CellTiter-Glo viability. The format is cell-based. To be noted: no stimulation, 24 hours. How it is done: as §2
A general note: Cellular ATP, detected with luciferase, serves as a proxy for viable cell number.

Series [6] has as its system HER3 signal sequence plus 4 amino acids fused to Gaussia Luciferase (HER3-ss+4aa/Gaussia Luciferase). Put plainly: Dox Induced HER3-ss-Gluc Assay. The format is cell-based. The settings on record: 24 hr, doxycycline induced, Flp-In 293 T-REx cells; read-out: 24 hr Dox Inducible Her3(ss + 4) Gluc 293FRT/TO: Mean 1050. The method in brief: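 Stable Flp-In 293 T-REx line expressing HER3 signal sequence+4aa/Gaussia luciferase under doxycycline-inducible control. Cells plated the day before; compound dilutions added in doxycycline-containing medium and incubated at 37° C, 5% CO2.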

[7] abbreviates: mouse liver microsomes, 30 min w/ NADPH.
Where [8] appears, read: monkey liver microsomes, 30 min w/ NADPH.

On to `C[C@H]1CN(S(=O)(=O)c2ccc(N(C)C)cc2)CCCN(CC2CCCCC2)CCCN(S(=O)(=O)N2CCc3cc(Cl)ccc3C2)C1` [A87], for which the IC50 is 19.1 nM in series [1] (293FRT/TO); 492 nM in [2] (293FRT/TO); 165 nM in the series with GM-CSF; greater than 25000 nM in the series with IL-1β; 61 nM in the series on IL-6; 200 nM with IL-23. Moreover, the IC50 in the series on TNFα is 82 nM; in the series with Human PBMC it was greater than 25000 nM. Further, the concentration for a half-maximal effect (EC50) in [3] (H929, read-out: 48 hr H929 Viability Celltiter-Glo: Mean EC50) amounted to 224 nM. In [4] (mouse, 30 min, NADPH), the “Liver Microsome Stability-% Left after 30 min w/ NADPH (%) Mouse” value (from here on “Liver Microsome Stability-% Left … (%) Mouse”) came to 49.6%. Further, the “Liver Microsome Stability-% Left after 30 min w/ NADPH (%) Monkey” value (“Liver Microsome Stability-% Left … (%) Monkey” below) in series [5] (monkey, 30 min, NADPH) is reported as 32.7%.

Regarding `COc1cc(F)ccc1N1CCN(S(=O)(=O)N2CCCN(CC3CCCCC3)CCCN(S(=O)(=O)c3ccc(N(C)C)cc3)C[C@H](C)C2)CC1` [A137], the IC50 was 8.3 nM in series [1] (Dox inducible, 293FRT/TO cells); 191 nM in [2] (Dox inducible, 293FRT/TO cells); 10.8 nM in series [6]; 25 nM in the series with GM-CSF; greater than 25000 nM in the series with IL-1β; 12 nM in the series with IL-6. Moreover, the IC50 in the series on IL-23 is 79 nM; in the series with TNFα it was 17 nM; in the series on Human PBMC, greater than 25000 nM. The compound further showed an EC50 in [3] (H929, Celltiter-Glo) of 282 nM. Besides, the “Liver Microsome Stability-% Left … (%) Mouse” value in series [4] (setting [7]) amounted to 28%. The “Liver Microsome Stability-% Left … (%) Monkey” value in series [5] (setting [8]) is reported as 14.2%.

As for `C[C@H]1CN(S(=O)(=O)c2ccc(N(C)C)cc2)CCCN(CC2CCCCC2)CCCN(S(=O)(=O)N2CCc3c(C#N)cccc3C2)C1` [A151, 2-{[(3S)-9-(cyclohexylmethyl)-5-[4-(dimethylamino)benzenesulfonyl]-3-methyl-1,5,9-triazacyclododecan-1-yl]sulfonyl}-1,2,3,4-tetrahydroisoquinoline-5-carbonitrile], the IC50 in series [1] (Dox inducible, 293FRT/TO cells) was determined as 153 nM; in [2] (Dox inducible, 293FRT/TO cells), 1220 nM; in series [6], 276 nM. For the same compound, a half-maximal effect in series [3] (H929, Celltiter-Glo) (EC50) was put at 2710 nM. Moreover, the “Liver Microsome Stability-% Left … (%) Mouse” value in [4] (setting [7]) turned out to be 4.55%. For the same compound, in series [5] (setting [8]), the “Liver Microsome Stability-% Left … (%) Monkey” value is 3.98%.

With `COc1cc(F)ccc1N1CCN(S(=O)(=O)N2CCCN(CC3CCCCC3)CCCN(S(=O)(=O)c3ccc(N(C)C)cc3)C[C@H](C)C2)C[C@H]1C` [A177, 4-{[(3S)-9-(cyclohexylmethyl)-5-{[(3 R)-4-(4-fluoro-2-methoxyphenyl)-3-methylpiperazin-1-yl]sulfonyl}-3-methyl-1,5,9-triazacyclododecan-1-yl]sulfonyl}-N,N-dimethylaniline], the IC50 in series [1] (Dox inducible, 293FRT/TO cells) was 4.95 nM; in series [2] (Dox inducible, 293FRT/TO cells) it was 155 nM; in [6], 10.9 nM; in the series on GM-CSF it was 19 nM; with IL-1β, greater than 25000 nM; in the series with IL-6, 24 nM. Besides, the IC50 is 54 nM with IL-23, 13 nM in the series with TNFα and greater than 25000 nM with Human PBMC. This compound also displayed an EC50 in [3] (H929, Celltiter-Glo) of 180 nM. In addition, the “Liver Microsome Stability-% Left … (%) Mouse” value in series [4] (setting [7]) is listed as 11.6%. In [5] (setting [8]), the “Liver Microsome Stability-% Left … (%) Monkey” value turned out to be 2.8%.
